Data reported in patent publication US12171230B2, “Herbicidal compositions” (Bayer Aktiengesellschaft, priority 2018, dated 2024).
Where “and” joins values, the source holds several entries; their conditions need not be identical. Equal values may be shown once. Read-outs that look alike come from different tables or passages of the source.

Key:
Type in all cases: in vivo
Panicum maximum = experiment: Post-emergence herbicidal action against Panicum maximum
Procedure: When the observed efficacies exceed the formal sum total of the values of the tests with individual applications, they also exceed the expected value according to Colby, which is calculated using the formula below and is likewise regarded as an indication of synergism (cf. S. R. Colby; in Weeds 15 (1967) p. 20 to 22): E^C=A+B−([…])
Here: • A=efficacy of the active compound (A) in % at an application rate of a g a.i./ha; • B=efficacy of the active compound (B) in % at an application rate of b g a.i./ha; • E^C=expected value of the effect of the combination (A)+(B) in % at the combined application rate a+b g a.i./ha.
Seeds or rhizome pieces of mono- and dicotyledonous weeds are placed in sandy loam in pots, covered with soil and grown in a greenhouse under good growth conditions (temperature, air humidity, water supply). Three weeks after sowing, the test plants were treated at the three-leaf stage with the compositions according to the invention. The compositions according to the invention formulated as spray powders or as emulsion concentrates were sprayed onto the green plant parts in various dosages with an application rate of 300 to 800 l/ha of water (equivalent). After the test plants have been left to stand in the greenhouse under optimal growth conditions for about 3 to 4 weeks, the action of the preparations is scored visually in comparison to untreated controls. The compositions according to the invention also have good post-emergence herbicidal activity against a broad spectrum of economically important gramineous and broadleaf weeds.

Lamium purpureum = experiment: Post-emergence herbicidal action against Lamium purpureum
How it was run: (§1)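 Greenhouse pot test: three-leaf-stage plants, three weeks from sowing, sprayed with spray-powder or emulsion-concentrate formulations at several dosages (300 to 800 l/ha water). Efficacy rated visually against untreated plants some 3 to 4 weeks later, with Colby formula giving expected combination effect.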

Amaranthus palmeri = experiment: Post-emergence herbicidal action against Amaranthus palmeri; settings: for Herbicidal action: 16 DAT; for pest or weed control at […] / pest or weed control at 5 g/ha / pest or weed control at 15 g/ha: Amaranthus palmeri, post-emergence, 504 h; for pest or weed control at […]: 1.7 g of a.i./ha; for pest or weed control at 5 g/ha: 5 g of a.i./ha; for pest or weed control at 15 g/ha: 15 g of a.i./ha
How it was run: as §1

Bidens pilosa = experiment: Post-emergence herbicidal action against Bidens pilosa
How it was run: as §1

Sorghum halepense = experiment: Post-emergence herbicidal action against Sorghum halepense; settings: 1.7 g of a.i./ha
How it was run: as §1

Digitaria sanguinalis = experiment: Post-emergence herbicidal action against Digitaria sanguinalis
How it was run: as §1

Poa annua = experiment: Post-emergence herbicidal action against Poa annua
How it was run: as §1

[1] = block with (B1.14) Tembotrione, read-out: Herbicidal action 21 DAT [%] against Amaranthus palmeri
[2] = block with (B1.7) Mesotrione, read-out: Herbicidal action 21 DAT [%] against Amaranthus palmeri
[3] = read-out: Herbicidal action 21 DAT [%] against Amaranthus palmeri

C=C[C@]1(C(=O)N[C@H]2CO[C@@H](C(=O)OC)C2)CC(c2cc(F)cc(F)c2)=NO1 (relative stereo) [Compound A3, methyl rel-(2R,4R)-4-[[(5S)-3-(3,5-difluorophenyl)-5-vinyl-4H-isoxazole-5-carbonyl]amino]tetrahydrofuran-2-carboxylate]
Herbicidal action 28 DAT [%] against Panicum maximum (Panicum maximum; 100 g of a.i./ha): 82% | Herbicidal action 28 DAT against Panicum maximum (Panicum maximum; g of a.i./ha: 200, 100, 100 + 200): 82% | Herbicidal action 14 DAT against Lamium purpureum L. (Lamium purpureum; 1 g of a.i./ha): 65% | Herbicidal action 28 DAT against Lamium purpureum L. (Lamium purpureum; 1 g of a.i./ha): 25% | Herbicidal action in [%] 14 DAT against Lamium purpureum L. (Lamium purpureum; 1 g of a.i./ha): 65% | Herbicidal action in [%] 28 DAT against Lamium purpureum L. (Lamium purpureum; 1 g of a.i./ha): 25% | Herbicidal action in [%] 28 DAT against Lamium purpureum L. (Lamium purpureum; 4 g of a.i./ha): 40% | Herbicidal action against Lamium purpureum L. (Lamium purpureum; 14 DAT, 1 g of a.i./ha): 65% | Herbicidal action against Lamium purpureum L. (Lamium purpureum; 28 DAT, 1 g of a.i./ha): 25% | Herbicidal action against Lamium purpureum L. (Lamium purpureum; 28 DAT, 4 g of a.i./ha): 40% | Herbicidal action 32 DAT [%] against Lamium purpureum (Lamium purpureum; 100 g of a.i./ha, post-emergence): 50% | Herbicidal action 14 DAT against Lamium purpureum L. (Lamium purpureum; (Z61) post-emergence, g of a.i./ha: 1, 270, 90, 1 + 270, 1 + 90): 65% | Herbicidal action (Amaranthus palmeri; 50 g a.i./ha): 35% | Herbicidal action (Amaranthus palmeri; 100 g a.i./ha): 45% | pest or weed control at […] (Amaranthus palmeri; [1]): 0% | pest or weed control at […] (Amaranthus palmeri; [2]): 10% | pest or weed control at […] (Amaranthus palmeri; block with (B9.10) Saflufenacil, read-out: Herbicidal action 21 DAT [%] against Amaranthus palmeri): 0% | pest or weed control at 5 g/ha (Amaranthus palmeri; [1]): 10% | pest or weed control at 5 g/ha (Amaranthus palmeri; [2]): 15% | pest or weed control at 5 g/ha (Amaranthus palmeri; [3]): 15% | pest or weed control at 15 g/ha (Amaranthus palmeri; [1]): 30% | pest or weed control at 15 g/ha (Amaranthus palmeri; [3]): 30% | pest or weed control at 5 g/ha (Amaranthus palmeri; 21 DAT, read-out: Herbicidal action 21 DAT [%] against Amaranthus palmeri): 15% | pest or weed control at […] (Amaranthus palmeri; 21 DAT): 10% | Herbicidal action 21 DAT [%] against Bidens pilosa (Bidens pilosa; 1.7 g of a.i./ha): 10% and 0% | Herbicidal action 21 DAT against Bidens pilosa (Bidens pilosa; 1.7 g of a.i./ha): 10% | Herbicidal action 21 DAT [%] against Bidens pilosa (Bidens pilosa; 1.7 g of a.i./ha, post-emergence, block with (B1.14) Tembotrione): 10% | Herbicidal action 21 DAT [%] against Bidens pilosa (Bidens pilosa; 1.7 g of a.i./ha, post-emergence, block with (B1.7) Mesotrione): 0% | Herbicidal action 21 DAT [%] against Bidens pilosa (Bidens pilosa; 5 g of a.i./ha): 10% | Herbicidal action 21 DAT against Bidens pilosa (Bidens pilosa; 5 g of a.i./ha): 10% | Herbicidal action 21 DAT [%] against Bidens pilosa (Bidens pilosa; 5 g of a.i./ha, post-emergence, block with (B1.14) Tembotrione): 10% | Herbicidal action 21 DAT [%] against Bidens pilosa (Bidens pilosa; 5 g of a.i./ha, post-emergence, block with (B1.7) Mesotrione): 10% | Herbicidal action 21 DAT [%] against Bidens pilosa (Bidens pilosa; 15 g of a.i./ha): 50% | Herbicidal action 21 DAT [%] against Bidens pilosa (Bidens pilosa; 15 g of a.i./ha, post-emergence, block with (B1.7) Mesotrione): 25% | Herbicidal action (Bidens pilosa; 21 DAT, 1.7 g a.i./ha): 10% | Herbicidal action (Bidens pilosa; 21 DAT, 5 g a.i./ha): 10% | Herbicidal action 21 DAT [%] against Bidens pilosa (Bidens pilosa; post-emergence, 21 DAT, 1.7 g of a.i./ha): 0% | Herbicidal action 21 DAT [%] against Bidens pilosa (Bidens pilosa; post-emergence, 21 DAT, 5 g of a.i./ha): 10% | Herbicidal action 21 DAT [%] against Bidens pilosa (Bidens pilosa; post-emergence, 21 DAT, 15 g of a.i./ha): 25% | Herbicidal action 21 DAT [%] against Sorghum halepense (Sorghum halepense): 40% | Herbicidal action 21 DAT against Sorghum halepense (Sorghum halepense): 40% | Herbicidal action 21 DAT [%] against Sorghum halepense (Sorghum halepense; post-emergence): 40% | Herbicidal action 21 DAT [%] against Digitaria sanguinalis (Digitaria sanguinalis; 1.7 g of a.i./ha): 20% and 10% | Herbicidal action 21 DAT against Digitaria sanguinalis (Digitaria sanguinalis; 1.7 g of a.i./ha): 10% | Herbicidal action 21 DAT [%] against Digitaria sanguinalis (Digitaria sanguinalis; 1.7 g of a.i./ha, post-emergence): 10% | Herbicidal action 21 DAT [%] against Digitaria sanguinalis (Digitaria sanguinalis; 5 g of a.i./ha): 80% | Herbicidal action 21 DAT against Digitaria sanguinalis (Digitaria sanguinalis; 5 g of a.i./ha): 80% | Herbicidal action (Digitaria sanguinalis; 21 DAT, 1.7 g a.i./ha): 10% | Herbicidal action 37 DAT against Digitaria sanguinalis (Digitaria sanguinalis; (Z61) post-emergence, g of a.i./ha: 180, 100, 100 + 180): 94% | Herbicidal action 28 DAT against Poa annua L. (Poa annua; 1 g of a.i./ha): 15% | Herbicidal action in [%] 14 DAT against Poa annua L. (Poa annua; 1 g of a.i./ha): 40% and 50% | Herbicidal action in [%] 28 DAT against Poa annua L. (Poa annua; 1 g of a.i./ha): 15% and 20% | Herbicidal action in [%] 28 DAT against Poa annua (Poa annua; 1 g of a.i./ha, post-emergence): 30% | Herbicidal action in [%] 14 DAT against Poa annua L. (Poa annua; 4 g of a.i./ha): 85% | Herbicidal action in [%] 28 DAT against Poa annua L. (Poa annua; 4 g of a.i./ha): 80% | Herbicidal action (Poa annua; 14 DAT, 1 g a.i./ha): 50% | Herbicidal action against Poa annua L. (Poa annua; 14 DAT, 1 g of a.i./ha): 40% | Herbicidal action (Poa annua; 14 DAT, 4 g a.i./ha): 85% | Herbicidal action against Poa annua L. (Poa annua; 14 DAT, 16 g of a.i./ha): 85% | Herbicidal action 28 DAT against Poa annua L. (Poa annua; 16 g of a.i./ha): 40% | Herbicidal action in [%] 14 DAT against Poa annua L. (Poa annua; 16 g of a.i./ha): 85% | Herbicidal action (Poa annua; 28 DAT, 1 g a.i./ha): 20% | Herbicidal action against Poa annua L. (Poa annua; 28 DAT, 1 g of a.i./ha): 15%
